Test results taken from patent publication US20100184751A1, “HETEROCYCLIC COMPOUNDS FOR THE TREATMENT OF TUBERCULOSIS” (priority 2007, published 2010).
Where a name gives a salt, the structure may show the parent alone. Read-outs that look alike come from different tables or passages of the source.

What was measured:
[1] = General antimicrobial activity assay (whole-cell broth microdilution MIC, CLSI M7-A7); type: cell-based
[2] = test system: Mycobacterium tuberculosis H37Rv; assay: Mycobacterium tuberculosis H37Rv inhibition assay (resazurin MIC); type: cell-based; conditions: ATCC 25618 / H37Rv, read-out: MIC value
[3] = 144 h, H37Rv strain (ATCC25618), Middlebrook 7H9, 37° C., six days, resazurin fluorescence after 48 hours

With `CC(C)n1nnc2cc(CNC3CCN(C[C@]4(O)Cn5c(=O)ccc6ncc(F)c4c65)CC3)ccc21` [Example 47] the MIC [1] was ≤ 8 µg/mL.
In the case of `COc1cnc2ccc(=O)n3c2c1[C@](O)(CN1CCC(NCc2cc4c(nn2)OCCO4)CC1)C3` [Example 66], the MIC ([1]; read-out: MIC values) was > 16 µg/mL.
With `COc1cnc2ccc(=O)n3c2c1[C@](O)(CN1CCC(NCc2cc4c(cn2)OCCO4)CC1)C3` [Example 65] the MIC [1] was ≤ 8 µg/mL.
With `O=c1c(Cl)cc2ncc(F)c3c2n1CC3(O)CN1CCC(NCc2cc3c(cn2)OCCO3)CC1` (racemic) [Example 24, (4R/S)-8-Chloro-4-({4-[(2,3-dihydro[1,4]dioxino[2,3-c]pyridin-7-ylmethyl)amino]-1-piperidinyl}methyl)-3-fluoro-4-hydroxy-4,5-dihydro-7H-pyrrolo[3,2,1-de]-1,5-naphthyridin-7-one Dihydrochloride] the MIC [1] was < 4 µg/mL.
In the case of `O=c1[nH]c(CNC2CCN(C[C@]3(O)Cn4c(=O)ccc5ncc(F)c3c54)CC2)nc2ccccc12` [Example 39], the MIC [1] was < 4 µg/mL.
For `O=c1[nH]c2ccccc2nc1CNC1CCN(C[C@]2(O)Cn3c(=O)ccc4ncc(F)c2c43)CC1` [Example 38], the MIC [1] was < 4 µg/mL.
For `O=c1ccc2ncc(F)c3c2n1CC3(F)CN1CCC(NCc2cc3c(nn2)OCCC3)CC1` (stereo not drawn) [Example 33, 4-({4-[(6,7-Dihydro-5H-pyrano[2,3-c]pyridazin-3-ylmethyl)amino]-1-piperidinyl}methyl)-3,4-difluoro-4,5-dihydro-7H-pyrrolo[3,2,1-de]-1,5-naphthyridin-7-one Dihyclrochloride (E1 Enantiomer)], the MIC [2, 3] was ≤ 4 µg/mL.
For `O=c1ccc2ncc(F)c3c2n1C[C@@]3(O)CN1CCC(NCc2ncc3c(n2)OCCO3)CC1` [Example 69, (4S)-4-({4-[6,7-dihydro[1,4]dioxino[2,3-d]pyrimidin-2-ylmethyl]amino]-1-piperidinyl}methyl)-3-fluoro-4-hydroxy-4,5-dihydro-7H-pyrrolo[3,2,1-de]-1,5-napthyridin-7-one (E1 Enantiomer Series) Dihydrochloride], the MIC [2, 3] was ≤ 4 µg/mL.
With `O=c1ccc2ncc(F)c3c2n1C[C@@]3(O)CN1CCC(NCc2ccc3scnc3c2)CC1` [Example 42, (4S)-4-({4-[(1,3-benzothiazol-5-ylmethyl)amino]-1-piperidinyl}methyl)-3-fluoro-4-hydroxy-4,5-dihydro-7H-pyrrolo[3,2,1-de]-1,5-naphthyridin-7-one] the MIC [2, 3] was ≤ 4 µg/mL.
With `O=C1COc2cnc(CNC3CCN(C[C@]4(O)Cn5c(=O)ccc6ncc(F)c4c65)CC3)nc2N1` [Example 70, (4S)-3-fluoro-4-hydroxy-4-[(4-{[(7-oxo-6,7-dihydro-1H-pyrimido[5,4-b][1,4]oxazin-2-yl)methyl]amino}-1-piperidinyl)methyl]-4,5-dihydro-7H-pyrrolo[3,2,1-de]-1,5-naphthyridin-7-one Dihydrochloride] the MIC ([2]; 144 h) was ≤ 4 µg/mL and the MIC [2] was ≤ 1.7 µg/mL.
For `O=c1ccc2ncc(F)c3c2n1C[C@@]3(O)CN1CCC(NCc2cc3c(cn2)SCCO3)CC1` [Example 23A, Dihydrochloride], the MIC [2, 3] was ≤ 4 µg/mL and the MIC ([2]; H37Rv strain (ATCC25618), Middlebrook 7H9, 37° C., six days, resazurin fluorescence after 48 hours) was ≤ 1.7 µg/mL.
